Patent US20020119438A1, “METHOD FOR D[…] CELL COUNT” (priority 1995, published 2002)
Converted amounts (≈) assume the structure as drawn.

What was measured:
MOLT-4 cells [1] = assay: Cytotoxicity assessment by method of the present invention (PO-PRO-1 Iodide fluorescence before/after Triton X-100); format: cell-based, human; conditions: two days incubation, from viable cell numbers
MOLT-4 cells [2] = assay: Cytotoxicity assessment by MTT assay system; format: cell-based, human; conditions: two days incubation

**Q.** Which IC50 (MOLT-4 cells [1]) does the source give for `CO[C@@]12[C@H](COC(N)=O)C3=C(C(=O)C(C)=C(N)C3=O)N1C[C@@H]1N[C@@H]12` [Mitomycin C] here?
**A.** 2.2 µg/mL (≈ 6.58 µM)

**Q.** What about the IC50 (MOLT-4 cells [2]) of the same molecule?
**A.** 5.5 µg/mL (≈ 16.5 µM)
